Substitutions are numbered along the chain they refer to.
Tests used:
[1] = target: T1, Muscarinic acetylcholine receptor M1 (Rattus norvegicus, UniProt P08482); experiment: In vitro binding affinity towards Muscarinic acetylcholine receptor M1 by the displacement of [3H]oxotremorine-M in rat brain membranes; type: cell membranes
T1 sequence (P08482 whole entry): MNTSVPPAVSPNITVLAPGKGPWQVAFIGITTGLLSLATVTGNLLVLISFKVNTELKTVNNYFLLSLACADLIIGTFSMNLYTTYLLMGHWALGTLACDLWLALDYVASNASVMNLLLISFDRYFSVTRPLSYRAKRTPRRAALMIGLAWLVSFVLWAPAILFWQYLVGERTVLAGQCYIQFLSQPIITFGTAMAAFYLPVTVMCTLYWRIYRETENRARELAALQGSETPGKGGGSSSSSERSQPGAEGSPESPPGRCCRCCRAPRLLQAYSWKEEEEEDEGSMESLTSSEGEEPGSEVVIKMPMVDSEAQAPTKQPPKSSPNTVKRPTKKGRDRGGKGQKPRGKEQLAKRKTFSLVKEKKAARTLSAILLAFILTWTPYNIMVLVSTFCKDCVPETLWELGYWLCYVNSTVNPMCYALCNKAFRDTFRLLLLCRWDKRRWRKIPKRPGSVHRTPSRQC

[2] = target: T1, Muscarinic acetylcholine receptor M1; experiment: In vitro binding affinity towards Muscarinic acetylcholine receptor M1 by the displacement of [3H]pirenzepine in rat cerebral cortical membranes; type: cell membranes, Membrane
[3] = target: T2, Muscarinic acetylcholine receptor M1 (Homo sapiens) (UniProt P11229); experiment: Percent stimulation of phospholipid hydrolysis in BHK cells transfected with human Muscarinic acetylcholine receptor M1 compared to maximal stimulation of carbachol at a dose of 100 uM; type: functional, cell-based
T2 sequence (whole entry): T1 sequence (P08482 whole entry) with V5A, S254T, S309P, K320R, G337A, V413I

## COc1nsnc1C1=C(C)CCN(C)C1
[1]
  IC50: 1000 nM
[2]
  IC50: 1000 nM

## CCCOc1nsnc1C1=CCCN(C)C1
[3]
  Stimulation: 25%
[1]
  IC50: 2 nM

## CCCCCCOc1nsnc1C1=CC(C)CN(C)C1 (stereo not drawn)
[3]
  Stimulation: 12%
[1]
  IC50: 14 nM
[2]
  IC50: 7 nM

## CCOc1nsnc1C1=CCC(C)N(C)C1 (stereo not drawn)
[3]
  Stimulation: 10%
[1]
  IC50: 11 nM
[2]
  IC50: 24 nM

## CCCCCCOc1nsnc1C1=CC2(C)CCCCC2(C)N(C)C1 (stereo not drawn)
[1]
  IC50: 1000 nM
[2]
  IC50: 1230 nM

## CCC#CCCOc1nsnc1C1=CCC(C)N(C)C1 (stereo not drawn)
[3]
  Stimulation: 12%
[1]
  IC50: 6 nM
[2]
  IC50: 5 nM

## C=CCCCOc1nsnc1C1=CCC(C)N(C)C1 (stereo not drawn)
[3]
  Stimulation: 12%
[1]
  IC50: 10 nM
[2]
  IC50: 8 nM

## CCCCCCOc1nsnc1C1=CCCN(C)C1C (stereo not drawn)
[1]
  IC50: 83 nM
[2]
  IC50: 48 nM

## CCCOc1nsnc1C1=CC(C)CN(C)C1 (stereo not drawn)
[3]
  Stimulation: 6%
[1]
  IC50: 17 nM
[2]
  IC50: 15 nM

## COc1nsnc1C1=CCCN(C)C1
[3]
  Stimulation: 7%

## CCCCCCOc1nsnc1C1=C(C)CCN(C)C1
[1]
  IC50: 100 nM
[2]
  IC50: 112 nM

## CCCCCOc1nsnc1C1=CCC(C)N(C)C1 (stereo not drawn)
[3]
  Stimulation: 18%
[1]
  IC50: 9 nM
[2]
  IC50: 5 nM

## CCCCOc1nsnc1C1=CCC(C)N(C)C1 (stereo not drawn)
[3]
  Stimulation: 9%
[1]
  IC50: 9 nM
[2]
  IC50: 8 nM

## CCCCCCOc1nsnc1C1=CCC(C)N(C)C1 (stereo not drawn)
[3]
  Stimulation: 27%
[1]
  IC50: 6 nM
[2]
  IC50: 5 nM

## COc1nsnc1C1=CC(C)CN(C)C1 (stereo not drawn)
[1]
  IC50: 600 nM
[2]
  IC50: 580 nM

## CCCCCCOc1nsnc1C1=CCCN(C)C1
[3]
  Stimulation: 70%
